US5622947A, “Benzoheterocyclic compounds and vasopressin antagonist and oxytocin antagonist compositions containing a benzoheterocyclic compound” (Otsuka Pharmaceutical Co., Ltd., priority 1992, dated 1997)
Counter-ions that a name gives are not always drawn.

Legend:
[1] = biological target: T1, V1 Recepter (rat liver plasma membrane preparations) (Rattus norvegicus, UniProt P30560); assay: V1 Recepter binding assay; settings: [3H]-Arg-vasopressin 2×10^-10 M, 37° C., 10 minutes, pH 8.0, rat liver plasma membrane
T1 construct: rat liver plasma membrane preparations; from tissue; host or cells: rat liver plasma membranes
Description: Test-1: V1 Recepter binding assay
By using rat liver plasma membrane preparations prepared according to Ichiraha's method [by Akira Ichihara: J. Bio. Chem., 258, 9283 (1983)], the plasma membrane (50,000 dpm, 2×10^-10 M) of [^3 H]-Arg-vasopressin and a test compound (60 μg, 10^-8 to 10^-4 M) were incubated at 37° C. for 10 minutes in 250 μl (in total volume) of 100 mM Tris-HCl buffer (pH=8.0), containing 5 mM MgCl2, 1 mM EDTA and 0.1% BSA. After the incubation, the mixture was filtered three times by using a glass filter (GF/F) so as to separate the membrane preparation by combining with vasopressin and then washed with the buffer (5 ml). This glass filter was taken out and mixed with a liquid of scintillation cocktail. The amount of [^3 H]-vasopressin combining with the membrane was measured by liquid scintillation counter and the rate of inhibitory effect of the test compound was calculated according to the following equation: […]
C1 : the amount of [^3 H]-vasopressin combining with the membrane in the presence of the test compound of a known amount,
(§1) C0 : the amount of [^3 H]-vasopressin combining with the membrane in the absence of the test compound,
B1 : the amount of [^3 H]-vasopressin combining with the membrane in the presence of the excess amount of vasopressin (10^-6 M).
The results are expressed as IC50 value, which is the concentration of the test compound required to achieve the inhitory effect in the rate of 50% and are shown in the following Table 156.

[2] = biological target: T2, V2 Recepter (rat kidney plasma membrane preparations) (Rattus norvegicus, UniProt Q00788); assay: V2 Recepter binding assay; settings: [3H]-Arg-vasopressin 4×10^-10 M, 4° C., pH 8.0, rat kidney plasma membrane
T2 construct: rat kidney plasma membrane preparations; from tissue; host or cells: rat kidney plasma membranes
Description: Test 2: V2 Recepter binding assay
By using rat kidney plasma membrane preparations prepared according to Hechter's method [by O. Hechter: J. Bio. Chem., 2.53, 3211 (1978)], the plasma membrane (100,000 dpm, 4×10^-10 M) of [^3 H]-Arg-vasopressin and a test compound (0.6 mg, 10^-10 to 10^-5 M) were incubated at 4° C. for 3 hours in 250 μl (in total volume) of 100 mM Tris-HCl buffer (pH=8.0), containing, 5 mM MgCl2, 1 mM EDTA and 0.1% BSA. After the incubation, the mixture, the mixture was filtered by using a glass filter (GF/F) so as to separate the membrane preparation combining with vasopressin, then washed twice with the buffer (5 ml). This glass filter was taken out and mixed with liquid scintillation cocktail. The amount of [^3 H]-vasopressin combining with the membrane was measured by a liquid scintillation counter and the rate of inhibitory effect of the test compound was calculated according to the following equation: Rate of the inhibitory
C1 : the amount of [^3 H]-vasopressin combining with the membrane in the presence of the testcompound of a known amount,
as §1
B1 : the amount of [^3 H]-vasopressin combining with the mebrane in the presence of the excess amount of vasopressin (10^-6 M).
The results are expressed as IC50 value, which is the concentration of the test compound required to achieve the inhibitory effect in the rate of 50%, and are shown in the following Table 157.

[3] = biological target: T3, Oxytocin receptor (uterin muscle membrane preparation) (Rattus norvegicus, UniProt P70536); assay: Oxytocin receptor binding assay; settings: [3H]-oxytocin 10^-9 M, 25°, one hour, pH 8.0, uterin muscle membrane, DES-treated
T3 construct: was homogenized, which was used as a membrane; from tissue; host or cells: uterine muscle membranes from diethylstilbestrol-treated animals
T3 sequence (P70536 1-388): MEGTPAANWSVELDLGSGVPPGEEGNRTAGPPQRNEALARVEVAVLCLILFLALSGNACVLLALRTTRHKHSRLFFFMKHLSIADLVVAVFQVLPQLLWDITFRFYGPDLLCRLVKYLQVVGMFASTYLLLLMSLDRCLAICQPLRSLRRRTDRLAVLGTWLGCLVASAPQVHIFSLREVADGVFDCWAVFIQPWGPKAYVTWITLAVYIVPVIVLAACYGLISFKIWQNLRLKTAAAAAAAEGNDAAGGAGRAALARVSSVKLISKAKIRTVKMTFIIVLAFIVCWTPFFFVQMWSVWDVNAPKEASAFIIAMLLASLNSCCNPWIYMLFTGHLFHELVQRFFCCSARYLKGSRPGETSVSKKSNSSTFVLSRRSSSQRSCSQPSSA
Description: Test-5 Oxytocin receptor binding assay
In accordance with Chan's method [by W. Y. Chan, et al.: Endocrinology, 126, 2095-2101 (1990)], the uterin muscle benn injected subcutaneously with diethylstilbe-sterol (DES) the day before and was homogenized, which was used as a membrane prepara tion. The membrane preparation (0.2 mg), [^3 H]-oxytocin (100,000 dpm, 10^-9 M), a test compound (10^-9 to 10^-5 M) were incubated at 25°. for one hour in 100 mM Tris-HCl buffer (pH=8.0, 250 μl) containing 5 mM MgCl2, 1 mM EDTA and 0.1% BSA. The mixture was filtered through a glass filter (GF/F) so as to separate the membrane preparation combining with [^3 H]-oxytocin, then, was washed twicw with the buffer (5 ml). The glass filter was put into a vial and mixed with Aquasole (a liquid scintillation cocktail). The amount of [^3 H]-oxytocin combining w ith the membrane was measured by a liquid scintillation counter. The rate of the inhibitory effect of the test compound was calculated according to the equation as follows: […]
C1 : the amount of [^3 H]-oxytocin combining with the membrane in the presence of a test compound (in known amount),
C0 : the amount of [^3 H]-oxytocin combinig with the membrane in the absence of a test compound,
B: the amount of [^3 H]-oxytocin combining with the membrane in the presence of the excess amount of oxytocin (5×10^-6 M).
The results are expressed as IC50 values, which is the concentration of the test compound required to achieve the inhibitory effect in the rate of 50%.

T2 sequence (Q00788 whole entry): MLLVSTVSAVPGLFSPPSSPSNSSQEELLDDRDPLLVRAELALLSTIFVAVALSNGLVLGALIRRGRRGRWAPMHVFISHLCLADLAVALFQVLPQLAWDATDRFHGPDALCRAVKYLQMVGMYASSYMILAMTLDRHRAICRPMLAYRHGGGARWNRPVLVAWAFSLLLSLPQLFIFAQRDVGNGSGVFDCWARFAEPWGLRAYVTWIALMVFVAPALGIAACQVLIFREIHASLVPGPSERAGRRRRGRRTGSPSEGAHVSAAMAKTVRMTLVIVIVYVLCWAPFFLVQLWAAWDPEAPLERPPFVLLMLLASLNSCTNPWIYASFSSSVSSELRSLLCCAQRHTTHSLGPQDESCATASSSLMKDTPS
T1 sequence (P30560 whole entry): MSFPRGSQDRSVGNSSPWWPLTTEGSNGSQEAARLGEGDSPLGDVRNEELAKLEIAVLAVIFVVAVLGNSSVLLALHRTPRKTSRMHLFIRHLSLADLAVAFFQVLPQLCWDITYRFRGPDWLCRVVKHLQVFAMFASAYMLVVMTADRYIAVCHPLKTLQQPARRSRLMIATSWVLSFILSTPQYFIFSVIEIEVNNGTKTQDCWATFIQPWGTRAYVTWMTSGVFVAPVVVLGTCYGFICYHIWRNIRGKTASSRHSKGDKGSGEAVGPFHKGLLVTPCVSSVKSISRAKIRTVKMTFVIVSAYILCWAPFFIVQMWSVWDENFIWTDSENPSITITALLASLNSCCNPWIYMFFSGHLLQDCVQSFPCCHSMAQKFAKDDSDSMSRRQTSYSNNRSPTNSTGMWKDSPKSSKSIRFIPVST

IC50 [1] [nM]	IC50 [2] [nM]	IC50 [3] [nM]	Compound
8	4	37	COc1cc(NC(=O)c2ccccc2Cl)ccc1C(=O)N1CCCC(CC(=O)N2CCCN(C)CC2)c2cc(Cl)ccc21 (centres unmarked) [Example 125, 5-(4-Methyl-1-homopiperazinyl)carbonylmethyl-7-chloro-1-[2-methoxy-4-(2-chlorobenzoylamino)benzoyl]-2,3,4,5-tetrahydro-1H-benzoazepine]
7	2	70	COc1cc(NC(=O)c2ccccc2Cl)ccc1C(=O)N1CCCC(CC(=O)N2CCN(CC(O)CNC(C)C)CC2)c2cc(Cl)ccc21 (centres unmarked) [Example 87, 5-[4-(2-Hydroxy-3-isopropylaminopropyl)-1-piperazinyl]carbonylmethyl-7-chloro-1-[2-methoxy-4-(2-chlorobenzoylamino)benzoyl]-2,3,4,5-tetrahydro-1H-benzoazepine]
90	120	478	CCN1CCN(C(=O)CCOC2CCCN(C(=O)c3ccc(N4Cc5ccccc5C4=O)cc3)c3ccc(Cl)cc32)CC1 (centres unmarked) [Example 132, 5-(4-Ethyl-1-piperazinyl)carbonylethoxy-7-chloro-1-[4-(1-oxoisoindolin-2-yl)benzoyl]-2,3,4,5-tetrahydro-1H-benzoazepine]
1.2	74		COc1cc(C(=O)N2CCCCc3cc(Cl)ccc32)ccc1NC(=O)c1ccccc1OCCCN1CCC(NC(C)=O)CC1 (single isomer, unassigned) [Example 72, 7-Chloro-1-[3-methoxy-4-{2-[3-(4-acetylamino-1-piperidinyl)propoxy]benzoylamino}benzoyl]-2,3,4,5-tetrahydro-1H-benzoazepine]
5.5	3	70	COc1cc(NC(=O)c2ccccc2Cl)ccc1C(=O)N1CCCC(CC(=O)NCCN2CCCCC2)c2cc(Cl)ccc21 (centres unmarked) [Example 156, 5-[2-(1-Piperidinyl)ethyl]aminocarbonylmethyl-7-chloro-1-[2-methoxy-4-(2-chlorobenzoylamino)benzoyl]-2,3,4,5-tetrahydro-1H-benzoazepine]
18	4	115	COc1cc(NC(=O)c2ccccc2Cl)ccc1C(=O)N1CCCC(CC(=O)NCCc2ccccn2)c2cc(Cl)ccc21 (centres unmarked) [Example 130, 5-[2-(2-Pyridyl)ethyl]aminocarbonylmethyl-7-chloro-1-[2-methoxy-4-(2-chlorobenzoylamino)benzoyl]-2,3,4,5-tetrahydro-1H-benzoazepine]
39	14	504	CCOC(=O)N1CCN(CCC2CCCN(C(=O)c3ccc(NC(=O)c4ccccc4Cl)cc3OC)c3ccc(Cl)cc32)CC1 (centres unmarked) [Example 147, 5-[2-(4-Ethoxycarbonyl-1-piperazinyl)ethyl]-7-chloro-1-[2-methoxy-4-(2-chlorobenzoylamino)-benzoyl]-2,3,4,5-tetrahydro-1H-benzoazepine]
7	80		COc1cc(C(=O)N2CCCCc3cc(Cl)ccc32)ccc1NC(=O)c1ccccc1OCCCn1cncn1 [Example 73, 7-Chloro-1-[3-methoxy-4-{2-[3-(1,2,4-triazol-1-yl)-propoxy]benzoylamino}benzoyl]-2,3,4,5-tetrahydro-1H-benzoazepine]
2.6	3.5		CCN(CC)CCN(C)C(=O)CC1CCCN(C(=O)c2ccc(NC(=O)c3ccccc3Br)c(OC)c2)c2ccc(Cl)cc21 (centres unmarked) [Example 91, 5-[N-Methyl-N-(2-diethylaminoethyl)amino]-carbonylmethyl-7-chloro-1-[3-methoxy-4-(2-bromobenzoylamino)benzoyl]-2,3,4,5-tetrahydro-1H-benzoazepine]
4.8	10		COc1cc(C(=O)N2CCCC(OCC(=O)N3CCCN(C)CC3)c3cc(Cl)ccc32)ccc1NC(=O)c1ccccc1Br (centres unmarked) [Example 166, 5-(4-Methyl-1-homopiperazinyl)carbonylmethoxy-7-chloro-1-[3-methoxy-4-(2-bromobenzoylamino)benzoyl]-2,3,4,5-tetrahydro-1H-benzoazepine]
9	2.5		COc1cc(NC(=O)c2ccccc2Cl)ccc1C(=O)N1CCCC(CC(=O)NCCN(C)C)c2cc(Cl)ccc21 (centres unmarked) [Example 89, 5-(2-Dimethylaminoethylamino)carbonylmethyl-7-chloro-1-[2-methoxy-4-(2-chlorobenzoylamino)benzoyl]-2,3,4,5-tetrahydro-1H-benzoazepine.cndot.hydrochloride]
46	8		COc1cc(NC(=O)c2ccccc2Cl)ccc1C(=O)N1CCCC(OCCNCC#N)c2cc(Cl)ccc21 (centres unmarked) [Example 151]
3.6	4.3		CCN(CCN(C)C)C(=O)COC1CCCN(C(=O)c2ccc(NC(=O)c3ccccc3Br)c(OC)c2)c2ccc(Cl)cc21 (centres unmarked) [Example 165, 5-[N-(2-Dimethylaminoethyl)-N-ethylamino]-carbonylmethoxy-7-chloro-[3-methoxy-4-(2-bromobenzoylamino)benzoyl]-2,3,4,5-tetrahydro-1H-benzoazepine]
1.8	8		COc1cc(C(=O)N2CCCC(CC(=O)N(C)CCN(C)C)c3cc(Cl)ccc32)ccc1NC(=O)c1ccccc1Br (centres unmarked) [Example 163, 5-[N-(2-Dimethylaminoethyl)-N-methylamino]-carbonylmethyl-7-chloro-1-[3-methoxy-4-(2-bromobenzoylamino)benzoyl]-2,3,4,5-tetrahydro-1H-benzoazepine]
90	45		CNC(=NC#N)NCCOC1CCCN(C(=O)c2ccc(NC(=O)c3ccccc3Cl)cc2OC)c2ccc(Cl)cc21 (centres unmarked) [Example 149, 5-[2-(3-Methyl-2-cyanogianidino)ethoxy]-7-chloro-1-[2-methoxy-4-(2-chlorobenzoylamino)benzoyl]-2,3,4,5-tetrahydro-1H-benzoazepine]

Compound	IC50 [1] [nM]	IC50 [2] [nM]	IC50 [3] [nM]
CC(C)NCCCCOc1ccccc1C(=O)Nc1ccc(C(=O)N2CCCC(CC(=O)N(C)C)c3cc(Cl)ccc32)cc1 (centres unmarked) [Example 162, 5-Dimethylaminocarbonylmethyl-7-chloro-1-{4-[2-(4-isopropylaminobutoxy)benzoylamino]-benzoyl}-2,3,4,5-tetrahydro-1H-benzoazepine]	9.2	130	
